Data on one compound can be found in patent US20250352555A1, “METHOD OF INCREASING IMMUNE CELL ACTIVATION AND/OR TREATING CANCER USING DIBENZOXAZEPINONES” (VASCULAR THERAPEUTICS PTY LTD, priority 2022, published 2025).

SMILES strings stand for the structures.

Experiment [1] relates to p-ERK (Thr^202/Tyr^204). As to the kind of experiment: Western blotting for p-ERK, A375 melanoma cells. The settings on record: 10 or 100 nM, 24 h. It is filed as cell-based, human. How it is done: (§1) Western blotting. Cells were treated with compounds and times indicated and total cell lysates were prepared in RIPA buffer. Lysates (10 μg) were resolved by SDS-PAGE and transferred to Immobilon-P polyvinylidene difluoride (PVDF) membranes (Millipore, USA).
Membranes were blocked with 5% skim milk and incubated with rabbit monoclonal anti-c-Jun (Abcam, cat. no. ab32137; mouse, rat and human reactive) antibody, rabbit monoclonal anti-PD-1 (Abcam, cat. no. ab214421) antibody, mouse monoclonal β-actin antibody (Sigma-Aldrich, cat. no. A5316), anti-phospho-SAPK/JNK (Thr^183/Tyr^185) (98F2) (CST, cat. no. 4671) antibody, anti-phospho-p44/42 MAPK (ERK1/2) (Thr^202/Tyr^204) (D13.14.4E) (CST, cat. no. 4370) antibody, anti-phospho-p38 MAPK (Thr^180/Tyr^182) (D3F9) (CST, cat. no. 4511) antibody, anti-SAPK/JNK antibody (CST, cat. no. 9252), anti-p44/42 MAPK (ERK1/2) (137F5) antibody (CST, cat. no. […] Chemiluminescence was detected using the Western Lightning Chemiluminescence system (Thermo Scientific, USA) and ImageQuant™ LAS 4000 biomolecular imager (GE Healthcare Life Sciences, USA). Band intensity in images generated with the LAS 4000 was quantified using NIH Image J.
The effect of BT2 on ERK phosphorylation (p-ERK) was evaluated in human melanoma cells given that MAP kinase activation is key to melanoma progression and the paucity of clinically approved ERK inhibitors. […]
(A western blot detects proteins with antibodies after separation by electrophoresis.)

Experiment [2] relates to A375 cells. As to the kind of experiment: Cell morphology study, A375. It is filed as cell-based, human. Conditions: 1 μM, 24 h. How it is done: Cell morphology studies. Cells were grown in medium containing 10% FBS in 4-well chamber slides. The following day the cells were incubated in medium containing 10% FBS and vehicle, BT2 or SCH772984 at 1 μM for 24 h, then fixed with 4% paraformaldehyde solution for 15 min. After washing briefly in PBS the cells were stained with hemotoxylin and eosin. The slides were scanned using an Aperio ScanScope XT slide scanner (Leica Biosystems, Mt Waverley, Vic, Australia) and images were captured using ImageScope software (Leica Biosystems).
The morphology of A375 and MeWo cells exposed to 1 μM of BT2 or SCH772984 for 24 h was also assessed.

For experiment [3], the system named is total ERK. As to the kind of experiment: Immunohistochemistry of B16F10 tumors (Day 17), total ERK. It is filed as in vivo, mouse. Conditions: B16F10 tumors Day 17, 200 mg/kg i.p. From the text: (§2) Immunohistochemical staining and analyses. Rabbit monoclonal anti-CD3 (cat. no. ab16669; mouse, rat and human reactive), rabbit monoclonal anti-PD-1 (cat. no. ab214421), rabbit monoclonal anti-CD68 (cat. no. ab125212) antibodies were obtained from Abcam, rabbit monoclonal anti-phospho-ERK (Thr^202/Tyr^204) (cat. no. CST4370), rabbit monoclonal total ERK (cat. no. CST4695), antibodies were obtained from Cell Signaling Technology. Rabbit polyclonal anti-PD-L1 (cat. no. PA5-20343) antibody was obtained from ThermoFisher.
(§3) Formalin fixed, paraffin embedded sections were prepared from tumors. Heat-induced epitope retrieval was applied to all deparaffinized sections (4 μm sections on Superfrost slides) with citrate buffer, pH 6.0 for 5 min at 110° C. […] Integrated optical density (IOD) or area of positive staining (red chromagen) was assessed using Image-Pro Plus software (Cybernetics, Bethesda, MD, USA). Positive staining was the average of quantitation in 4-8 fields of view under 20× or 40× objectives.
To assess the effect of BT2 in the same model, C57BL/6J mice bearing s.c. B16F10 tumors were administered with BT2 or vehicle (200 mg/kg or 20 ml/kg, respectively, i.p.) once a day on a 5 days-on/2 days-off schedule. […] Tumor size on Day 17 measured using callipers (FIG. 10A) correlated with isolated weighed tumors (FIG. 10B).

For experiment [4], the system named is CD3. As to the kind of experiment: Immunohistochemistry of B16F10 tumors (Day 17), CD3. It is filed as in vivo, mouse. The settings on record: B16F10 tumors Day 17, 200 mg/kg i.p.
Source text: as §2
as §3, with “C. Sections were blocked with Dual Endogenous Enzyme Block (DAKO, S2003) for 10 min and then with 2% skim milk for 20 min. Slides were incubated with primary antibody for 60 min at room temperature or overnight at 4° C. and then for 10 min with probe of MACH3 Rabbit AP-Polymer Detection solution (Biocare Medical, M3R533 G, H, L).” for “C.”, “objectives. […]” for “objectives.”

The test system of experiment [5] is JUN. As to the kind of experiment: Western blotting for JUN, A375 cells. It is filed as cell-based, human. Conditions: A375 cells (BRAF^V600E), 24 h, dose-dependent. How it is done:
as §1
Membranes were blocked with 5% skim milk and incubated with rabbit monoclonal anti-c-Jun (Abcam, cat. no. ab32137; mouse, rat and human reactive) antibody, rabbit monoclonal anti-PD-1 (Abcam, cat. no. ab214421) antibody, mouse monoclonal β-actin antibody (Sigma-Aldrich, cat. no. A5316), anti-phospho-SAPK/JNK (Thr^183/Tyr^185) (98F2) (CST, cat. no. 4671) antibody, anti-phospho-p44/42 MAPK (ERK1/2) (Thr^202/Tyr^204) (D13.14.4E) (CST, cat. no. 4370) antibody, anti-phospho-p38 MAPK (Thr^180/Tyr^182) (D3F9) (CST, cat. no. 4511) antibody, anti-SAPK/JNK antibody (CST, cat. no. 9252), anti-p44/42 MAPK (ERK1/2) (137F5) antibody (CST, cat. no. 4695), anti-p38 MAPK antibody (CST, cat. no. 9212), anti-DUSP8 antibody (Abcam, cat. no. ab198175) or anti-c-MAF (BLR045F) antibody (Abcam, cat. no. ab243901). […] Chemiluminescence was detected using the Western Lightning Chemiluminescence system (Thermo Scientific, USA) and ImageQuant™ LAS 4000 biomolecular imager (GE Healthcare Life Sciences, USA). Band intensity in images generated with the LAS 4000 was quantified using NIH Image J. […]

The subject of experiment [6] is endothelial cells. Conditions: shown previously, cited from earlier work.

As for `CCOC(=O)Nc1ccc2c(c1)C(=O)N(CC)c1ccccc1O2` [BT2, (10-ethyl-11-oxo-10,11-dihydro-dibenzo[b,f][1,4]oxazepin-2-yl)-carbamic acid ethyl ester], the “ERK phosphorylation (p-ERK, Western blot)” value in experiment [1] is given as “suppressed ERK phosphorylation”. Moreover, in experiment [2], the cell morphology result was “loss of spindle morphology and cell rounding”. In addition, in experiment [3], the “total ERK levels in tumors (IHC)” value is recorded as “without affecting total ERK levels”. Further, the “CD3+ staining in the tumor periphery (within 250 μm) (IHC)” value in experiment [4] was “stimulated CD3^+ staining in the tumor periphery”. The “JUN expression (Western blot)” value in experiment [5] is given as “increased”. In experiment [6] (endothelial cells), the “ERK phosphorylation and expression of FosB/ΔFosB and VCAM-1, and VEGF” value is listed as “inhibit”. For the same compound, the “endothelial cell proliferation and migration, angiogenesis and wound repair” value in experiment [6] is “inhibit”.
